PubChem BioAssay (NCI)
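96-well plates; 48 h exposure; 5 concentrations. Endpoints by linear interpolation between flanking doses. Not reached: highest tested concentration assigned. TGI is the concentration that stops growth completely.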

Assays:
Experiment in all cases: inhibition of tumour cell growth, NCI panel, 48 h
HCT-116 colon = system: HCT-116 colon
DLD-1 colon = system: DLD-1 colon
MOLT-4 leukemia = system: MOLT-4 leukemia
SK-OV-3 ovarian = system: SK-OV-3 ovarian
LOX IMVI melanoma = system: LOX IMVI melanoma
SK-MEL-2 melanoma = system: SK-MEL-2 melanoma
HT29 colon = system: HT29 colon
CAKI-1 renal = system: CAKI-1 renal
OVCAR-5 ovarian = system: OVCAR-5 ovarian
786-0 renal = system: 786-0 renal
RXF-631 renal = system: RXF-631 renal
NCI-H226 lung = system: NCI-H226 lung
IGROV1 ovarian = system: IGROV1 ovarian
DMS 273 small cell lung = system: DMS 273 small cell lung
HCT-15 colon = system: HCT-15 colon
HL-60(TB) leukemia = system: HL-60(TB) leukemia
A549 NSCLC = system: A549 NSCLC
SK-MEL-5 melanoma = system: SK-MEL-5 melanoma
LXFL 529 NSCLC = system: LXFL 529 NSCLC
MALME-3M melanoma = system: MALME-3M melanoma
RXF 393 renal = system: RXF 393 renal
EKVX NSCLC = system: EKVX NSCLC
HOP-62 NSCLC = system: HOP-62 NSCLC
UACC-257 melanoma = system: UACC-257 melanoma
NCI-H522 lung = system: NCI-H522 lung
SW-620 colon = system: SW-620 colon
CCRF-CEM leukemia = system: CCRF-CEM leukemia
SF-539 CNS = system: SF-539 CNS
TK-10 renal = system: TK-10 renal
NCI-H460 lung = system: NCI-H460 lung
HCC-2998 colon = system: HCC-2998 colon
DMS 114 small cell lung = system: DMS 114 small cell lung
OVCAR-8 ovarian = system: OVCAR-8 ovarian
RPMI-8226 leukemia = system: RPMI-8226 leukemia
COLO 205 colon = system: COLO 205 colon
M19-MEL melanoma = system: M19-MEL melanoma
SF-268 CNS = system: SF-268 CNS
UACC-62 melanoma = system: UACC-62 melanoma
NCI-H23 lung = system: NCI-H23 lung
HOP-18 NSCLC = system: HOP-18 NSCLC
U251 CNS = system: U251 CNS
SNB-19 CNS = system: SNB-19 CNS
SK-MEL-28 melanoma = system: SK-MEL-28 melanoma
SR leukemia = system: SR leukemia
K-562 leukemia = system: K-562 leukemia
KM12 colon = system: KM12 colon
ACHN renal = system: ACHN renal
HOP-92 NSCLC = system: HOP-92 NSCLC
OVCAR-3 ovarian = system: OVCAR-3 ovarian
SF-295 CNS = system: SF-295 CNS
KM20L2 colon = system: KM20L2 colon
SN12C renal = system: SN12C renal
XF 498 CNS = system: XF 498 CNS
SNB-78 CNS = system: SNB-78 CNS
UO-31 renal = system: UO-31 renal

For `CC1(O)CCn2c(=O)c3cc4ccccc4cc3c(=O)n2C1O` (stereo not given), the TGI (HCT-116 colon) was over 100 µM, the TGI (DLD-1 colon) was over 100 µM and the TGI (MOLT-4 leukemia) was over 100 µM. For the same compound, the TGI (SK-OV-3 ovarian) was over 100 µM, the TGI (LOX IMVI melanoma) was over 100 µM and the TGI (SK-MEL-2 melanoma) was over 100 µM. For the same compound, the TGI (HT29 colon) was over 100 µM, the TGI (CAKI-1 renal) was over 100 µM and the TGI (OVCAR-5 ovarian) was over 100 µM. It also gave a TGI (786-0 renal) of over 100 µM, a TGI (RXF-631 renal) of over 100 µM and a TGI (NCI-H226 lung) of over 100 µM. The TGI (IGROV1 ovarian) was over 100 µM, the TGI (DMS 273 small cell lung) was over 100 µM and the TGI (HCT-15 colon) was over 100 µM. It also gave a TGI (HL-60(TB) leukemia) of over 100 µM, a TGI (A549 NSCLC) of over 100 µM and a TGI (SK-MEL-5 melanoma) of over 100 µM. The TGI (LXFL 529 NSCLC) was over 100 µM, the TGI (MALME-3M melanoma) was over 100 µM and the TGI (RXF 393 renal) was over 100 µM. For the same compound, the TGI (EKVX NSCLC) was over 100 µM, the TGI (HOP-62 NSCLC) was over 100 µM and the TGI (UACC-257 melanoma) was over 100 µM. For the same compound, the TGI (NCI-H522 lung) was 50.7 µM, the TGI (SW-620 colon) was over 100 µM and the TGI (CCRF-CEM leukemia) was over 100 µM. The TGI (SF-539 CNS) was over 100 µM, the TGI (TK-10 renal) was over 100 µM and the TGI (NCI-H460 lung) was over 100 µM. It also gave a TGI (HCC-2998 colon) of over 100 µM, a TGI (DMS 114 small cell lung) of over 100 µM and a TGI (OVCAR-8 ovarian) of over 100 µM. It also gave a TGI (RPMI-8226 leukemia) of over 100 µM, a TGI (COLO 205 colon) of over 100 µM and a TGI (M19-MEL melanoma) of over 100 µM. The TGI (SF-268 CNS) was over 100 µM, the TGI (UACC-62 melanoma) was over 100 µM and the TGI (NCI-H23 lung) was over 100 µM. It also gave a TGI (HOP-18 NSCLC) of over 100 µM, a TGI (U251 CNS) of over 100 µM and a TGI (SNB-19 CNS) of over 100 µM. The TGI (SK-MEL-28 melanoma) was over 100 µM, the TGI (SR leukemia) was over 100 µM and the TGI (K-562 leukemia) was over 100 µM. The TGI (KM12 colon) was over 100 µM, the TGI (ACHN renal) was over 100 µM and the TGI (HOP-92 NSCLC) was over 100 µM. The TGI (OVCAR-3 ovarian) was over 100 µM, the TGI (SF-295 CNS) was over 100 µM and the TGI (KM20L2 colon) was over 100 µM. The TGI (SN12C renal) was over 100 µM.

`O=C1C2=C(CCC2)Nc2cccc3ncn1c23` was tested, and the TGI (HCT-116 colon) was over 100 µM, the TGI (DLD-1 colon) was over 100 µM and the TGI (XF 498 CNS) was over 100 µM. For the same compound, the TGI (MOLT-4 leukemia) was over 100 µM, the TGI (SK-OV-3 ovarian) was over 100 µM and the TGI (LOX IMVI melanoma) was over 100 µM. It also gave a TGI (SK-MEL-2 melanoma) of over 100 µM, a TGI (OVCAR-5 ovarian) of over 100 µM and a TGI (786-0 renal) of over 100 µM. The TGI (IGROV1 ovarian) was over 100 µM, the TGI (DMS 273 small cell lung) was over 100 µM and the TGI (HCT-15 colon) was over 100 µM. It also gave a TGI (HL-60(TB) leukemia) of over 100 µM, a TGI (A549 NSCLC) of over 100 µM and a TGI (SK-MEL-5 melanoma) of over 100 µM. The TGI (LXFL 529 NSCLC) was over 100 µM, the TGI (MALME-3M melanoma) was over 100 µM and the TGI (RXF 393 renal) was over 100 µM. The TGI (EKVX NSCLC) was over 100 µM, the TGI (UACC-257 melanoma) was over 100 µM and the TGI (NCI-H522 lung) was over 100 µM. For the same compound, the TGI (SW-620 colon) was over 100 µM, the TGI (CCRF-CEM leukemia) was over 100 µM and the TGI (SF-539 CNS) was over 100 µM. It also gave a TGI (TK-10 renal) of 75.7 µM, a TGI (NCI-H460 lung) of over 100 µM and a TGI (HCC-2998 colon) of over 100 µM. For the same compound, the TGI (DMS 114 small cell lung) was over 100 µM, the TGI (OVCAR-8 ovarian) was over 100 µM and the TGI (RPMI-8226 leukemia) was over 100 µM. For the same compound, the TGI (SNB-78 CNS) was over 100 µM, the TGI (COLO 205 colon) was over 100 µM and the TGI (M19-MEL melanoma) was over 100 µM. For the same compound, the TGI (SF-268 CNS) was over 100 µM, the TGI (UACC-62 melanoma) was over 100 µM and the TGI (NCI-H23 lung) was over 100 µM. For the same compound, the TGI (HOP-18 NSCLC) was 64.2 µM, the TGI (U251 CNS) was over 100 µM and the TGI (SNB-19 CNS) was over 100 µM. It also gave a TGI (SK-MEL-28 melanoma) of over 100 µM, a TGI (SR leukemia) of over 100 µM and a TGI (K-562 leukemia) of over 100 µM. The TGI (KM12 colon) was over 100 µM, the TGI (ACHN renal) was over 100 µM and the TGI (UO-31 renal) was over 100 µM. It also gave a TGI (SF-295 CNS) of over 100 µM, a TGI (KM20L2 colon) of over 100 µM and a TGI (SN12C renal) of over 100 µM.
